We go through one compound from PMC9719519, “Non-classical ferroptosis inhibition by a small molecule targeting PHB2” (Nature Communications, 2022).

What all share (experiment): biochemical
Common to all, as to design: Eurofins recombinant human kinase profiling, remaining kinase activity as % of control, 10 uM ATP
Settings in all cases: ATP 10 uM; read-out: %Ctrl@10 μM

The target of assay [1] is IRAK4(h) (Homo sapiens, UniProt Q9NWZ3). In a few lines: (§1)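 Recombinant human kinases, 401 in total, screened using an outsourced kinase profiling assay.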
For assay [2], the target named is EphA3(h) (Homo sapiens, UniProt P29320). In a few lines:
as §1

Assay [3] deals with EphA2(h) (Homo sapiens, UniProt P29317). In a few lines:
as §1

Assay [4] deals with T1, Abl (Q252H) (h) (Homo sapiens, UniProt P00519, Q252H).
T1 construct: gene ABL1
A digest of the protocol: as §1

Assay [5] has as its target T2, ACTR2(h) (Homo sapiens, UniProt P27037).
T2 construct: gene ACVR2A
In a few lines:
as §1

In assay [6] the target is LIMK2(h) (Homo sapiens, UniProt P53671). In a few lines: as §1
Sequence of LIMK2(h) (P53671 whole entry): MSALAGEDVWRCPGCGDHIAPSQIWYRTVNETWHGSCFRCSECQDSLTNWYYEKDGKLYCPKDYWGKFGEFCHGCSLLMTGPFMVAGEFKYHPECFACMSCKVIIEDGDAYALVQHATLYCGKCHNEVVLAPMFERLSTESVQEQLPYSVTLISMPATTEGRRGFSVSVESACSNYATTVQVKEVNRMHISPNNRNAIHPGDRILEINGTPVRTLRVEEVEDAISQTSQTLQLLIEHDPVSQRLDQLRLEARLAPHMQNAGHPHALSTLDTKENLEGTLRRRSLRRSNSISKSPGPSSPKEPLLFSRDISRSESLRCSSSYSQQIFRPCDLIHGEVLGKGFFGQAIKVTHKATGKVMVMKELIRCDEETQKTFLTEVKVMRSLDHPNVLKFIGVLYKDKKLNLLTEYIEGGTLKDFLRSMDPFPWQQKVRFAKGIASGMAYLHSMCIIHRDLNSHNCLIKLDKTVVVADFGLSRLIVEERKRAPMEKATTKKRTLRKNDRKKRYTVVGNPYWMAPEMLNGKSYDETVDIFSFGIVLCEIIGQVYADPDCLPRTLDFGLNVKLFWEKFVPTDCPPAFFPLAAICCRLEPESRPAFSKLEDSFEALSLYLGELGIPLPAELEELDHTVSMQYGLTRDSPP
Assay [7] deals with FGFR1(h) (Homo sapiens, UniProt P11362). A digest of the protocol:
as §1

Assay [8] has as its target T3, ChaK1(h) (Homo sapiens, UniProt Q96QT4).
T3 construct: gene TRPM7
A digest of the protocol: as §1

Assay [9] concerns the target CDK9/cyclin T1(h) (Homo sapiens, UniProt P50750). A digest of the protocol: as §1
For assay [10], the target named is WNK1(h) (Homo sapiens, UniProt Q9H4A3). In a few lines: as §1
The target in assay [11] is SBK1(h) (Homo sapiens, UniProt Q52WX2). A digest of the protocol:
as §1

In assay [12] the target is T4, PI3 Kinase (p110(E542K)/p85)(h) (Homo sapiens, UniProt P42336, E542K).
T4 construct: gene PIK3CA
In a few lines:
as §1

Assay [13] has as its target Hck(h) (Homo sapiens, UniProt P08631). In a few lines:
as §1

Assay [14] deals with T5, PDGFRα(h) (Homo sapiens, UniProt P16234).
T5 construct: gene PDGFRA
In a few lines:
as §1

Assay [15] has as its target T6, DRAK2(h) (Homo sapiens, UniProt O94768).
T6 construct: gene STK17B
In a few lines: as §1

Assay [16] addresses T7, TrkC(h) (Homo sapiens, UniProt Q16288).
T7 construct: gene NTRK3
A digest of the protocol: as §1

The target of assay [17] is T8, PRAK(h) (Homo sapiens, UniProt Q8IW41).
T8 construct: gene MAPKAPK5
T8 sequence (Q8IW41 whole entry): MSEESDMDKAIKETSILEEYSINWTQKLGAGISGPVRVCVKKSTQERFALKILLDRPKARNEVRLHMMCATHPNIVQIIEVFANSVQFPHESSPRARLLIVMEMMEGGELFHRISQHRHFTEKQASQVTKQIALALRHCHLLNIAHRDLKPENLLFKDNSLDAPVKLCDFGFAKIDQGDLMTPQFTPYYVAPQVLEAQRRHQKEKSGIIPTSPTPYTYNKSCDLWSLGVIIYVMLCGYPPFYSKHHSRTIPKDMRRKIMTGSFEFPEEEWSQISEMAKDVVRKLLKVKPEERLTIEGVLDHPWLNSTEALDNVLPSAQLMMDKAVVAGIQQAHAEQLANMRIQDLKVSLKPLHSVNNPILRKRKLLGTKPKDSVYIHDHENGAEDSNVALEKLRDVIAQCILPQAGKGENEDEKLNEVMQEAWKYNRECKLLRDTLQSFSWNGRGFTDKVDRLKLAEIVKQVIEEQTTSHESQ
In a few lines:
as §1

The target of assay [18] is T9, Arg(h) (Homo sapiens, UniProt P42684).
T9 construct: gene ABL2
In a few lines:
as §1

Assay [19] has as its target T10, Tie2 (h) (Homo sapiens, UniProt Q02763).
T10 construct: gene TEK
A digest of the protocol: as §1

Assay [20] concerns the target CDKL3(h) (Homo sapiens, UniProt Q8IVW4). A digest of the protocol: as §1
In assay [21] the target is T11, PKG1α(h) (Homo sapiens, UniProt Q13976).
T11 construct: gene PRKG1; isoform 1alpha
In a few lines:
as §1

The target in assay [22] is Plk1(h) (Homo sapiens, UniProt P53350). A digest of the protocol: as §1
Sequence of Plk1(h) (P53350 whole entry): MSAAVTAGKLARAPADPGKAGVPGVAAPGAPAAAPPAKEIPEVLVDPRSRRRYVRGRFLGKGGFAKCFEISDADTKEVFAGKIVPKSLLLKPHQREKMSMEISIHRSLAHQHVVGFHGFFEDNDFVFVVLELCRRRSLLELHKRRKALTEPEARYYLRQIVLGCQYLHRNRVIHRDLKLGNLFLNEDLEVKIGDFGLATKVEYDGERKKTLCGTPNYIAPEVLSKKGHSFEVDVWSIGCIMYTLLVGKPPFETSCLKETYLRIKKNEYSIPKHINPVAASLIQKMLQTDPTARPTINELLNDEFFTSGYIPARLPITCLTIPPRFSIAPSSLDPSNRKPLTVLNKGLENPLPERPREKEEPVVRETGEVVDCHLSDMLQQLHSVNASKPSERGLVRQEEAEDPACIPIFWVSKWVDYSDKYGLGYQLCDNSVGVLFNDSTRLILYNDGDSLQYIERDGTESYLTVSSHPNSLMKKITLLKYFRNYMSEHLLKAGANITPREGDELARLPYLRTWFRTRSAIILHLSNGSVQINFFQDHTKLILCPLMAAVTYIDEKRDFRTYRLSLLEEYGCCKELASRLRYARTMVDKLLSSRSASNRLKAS

Each structure is given as a SMILES string.

Sequence of SBK1(h) (Q52WX2 whole entry): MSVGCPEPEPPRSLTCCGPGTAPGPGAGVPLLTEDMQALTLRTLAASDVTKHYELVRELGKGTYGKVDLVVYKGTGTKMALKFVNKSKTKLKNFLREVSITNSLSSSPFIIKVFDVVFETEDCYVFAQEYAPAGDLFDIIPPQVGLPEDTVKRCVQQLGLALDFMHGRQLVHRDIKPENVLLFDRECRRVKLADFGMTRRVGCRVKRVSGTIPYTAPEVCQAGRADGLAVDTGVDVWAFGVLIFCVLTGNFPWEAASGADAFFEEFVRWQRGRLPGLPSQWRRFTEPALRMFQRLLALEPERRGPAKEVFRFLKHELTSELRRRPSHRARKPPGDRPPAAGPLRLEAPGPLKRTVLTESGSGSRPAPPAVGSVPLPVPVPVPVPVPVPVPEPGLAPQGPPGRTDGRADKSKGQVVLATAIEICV
T6 sequence (O94768 whole entry): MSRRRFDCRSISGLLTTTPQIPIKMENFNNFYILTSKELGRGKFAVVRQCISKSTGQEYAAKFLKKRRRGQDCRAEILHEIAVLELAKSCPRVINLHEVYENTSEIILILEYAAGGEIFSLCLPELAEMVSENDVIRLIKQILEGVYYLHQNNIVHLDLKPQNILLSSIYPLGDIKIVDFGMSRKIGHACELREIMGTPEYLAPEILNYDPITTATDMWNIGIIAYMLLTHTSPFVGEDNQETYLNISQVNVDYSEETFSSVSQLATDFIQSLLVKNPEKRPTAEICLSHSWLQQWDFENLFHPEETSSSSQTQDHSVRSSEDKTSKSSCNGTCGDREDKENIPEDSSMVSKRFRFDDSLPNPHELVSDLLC
Sequence of CDKL3(h) (Q8IVW4 whole entry): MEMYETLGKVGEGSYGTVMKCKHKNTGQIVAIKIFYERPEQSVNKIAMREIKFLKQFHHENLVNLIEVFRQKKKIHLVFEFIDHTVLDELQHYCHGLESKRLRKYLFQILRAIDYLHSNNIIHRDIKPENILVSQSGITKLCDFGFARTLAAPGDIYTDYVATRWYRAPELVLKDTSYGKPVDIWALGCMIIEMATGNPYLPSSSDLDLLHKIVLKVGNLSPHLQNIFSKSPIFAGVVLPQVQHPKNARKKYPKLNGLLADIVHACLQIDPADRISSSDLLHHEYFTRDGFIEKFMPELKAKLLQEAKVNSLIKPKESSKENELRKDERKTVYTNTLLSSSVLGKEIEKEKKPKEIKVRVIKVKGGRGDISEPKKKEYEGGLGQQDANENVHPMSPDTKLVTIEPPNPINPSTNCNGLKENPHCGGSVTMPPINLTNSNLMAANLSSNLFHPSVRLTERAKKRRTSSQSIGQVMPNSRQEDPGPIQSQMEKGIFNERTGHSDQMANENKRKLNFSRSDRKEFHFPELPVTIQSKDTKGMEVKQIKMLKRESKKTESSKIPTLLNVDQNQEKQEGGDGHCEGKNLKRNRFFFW
Sequence of CDK9/cyclin T1(h) (P50750 whole entry): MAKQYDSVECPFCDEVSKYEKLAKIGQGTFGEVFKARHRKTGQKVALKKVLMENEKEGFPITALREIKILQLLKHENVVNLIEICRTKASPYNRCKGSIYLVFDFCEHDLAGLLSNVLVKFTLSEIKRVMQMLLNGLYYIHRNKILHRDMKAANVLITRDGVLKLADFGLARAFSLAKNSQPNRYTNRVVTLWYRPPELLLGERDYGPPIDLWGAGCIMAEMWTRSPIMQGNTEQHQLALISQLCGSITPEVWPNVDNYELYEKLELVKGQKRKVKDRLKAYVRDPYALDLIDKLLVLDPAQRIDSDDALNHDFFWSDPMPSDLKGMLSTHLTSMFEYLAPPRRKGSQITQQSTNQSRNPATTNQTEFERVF
Sequence of CDK9/cyclin T1(h) (O60563 whole entry partner): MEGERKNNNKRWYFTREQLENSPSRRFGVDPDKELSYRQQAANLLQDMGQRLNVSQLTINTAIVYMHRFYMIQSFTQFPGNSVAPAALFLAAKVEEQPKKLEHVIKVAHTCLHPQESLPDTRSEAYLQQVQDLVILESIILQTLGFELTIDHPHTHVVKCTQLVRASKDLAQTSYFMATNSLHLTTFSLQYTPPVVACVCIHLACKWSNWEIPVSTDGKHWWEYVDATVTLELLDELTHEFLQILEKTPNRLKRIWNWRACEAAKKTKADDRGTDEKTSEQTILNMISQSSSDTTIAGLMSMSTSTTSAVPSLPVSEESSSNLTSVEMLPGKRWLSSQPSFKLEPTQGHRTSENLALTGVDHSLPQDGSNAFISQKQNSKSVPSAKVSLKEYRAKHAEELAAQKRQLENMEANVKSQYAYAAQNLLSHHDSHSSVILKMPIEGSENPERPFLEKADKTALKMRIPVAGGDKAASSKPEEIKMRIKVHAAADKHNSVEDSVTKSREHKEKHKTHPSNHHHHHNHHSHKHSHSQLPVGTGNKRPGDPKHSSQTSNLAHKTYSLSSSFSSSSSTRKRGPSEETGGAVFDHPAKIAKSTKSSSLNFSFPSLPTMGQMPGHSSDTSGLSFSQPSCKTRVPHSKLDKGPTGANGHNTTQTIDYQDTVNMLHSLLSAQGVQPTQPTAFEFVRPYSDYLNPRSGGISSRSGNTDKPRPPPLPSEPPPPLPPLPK
T2 sequence (P27037 whole entry): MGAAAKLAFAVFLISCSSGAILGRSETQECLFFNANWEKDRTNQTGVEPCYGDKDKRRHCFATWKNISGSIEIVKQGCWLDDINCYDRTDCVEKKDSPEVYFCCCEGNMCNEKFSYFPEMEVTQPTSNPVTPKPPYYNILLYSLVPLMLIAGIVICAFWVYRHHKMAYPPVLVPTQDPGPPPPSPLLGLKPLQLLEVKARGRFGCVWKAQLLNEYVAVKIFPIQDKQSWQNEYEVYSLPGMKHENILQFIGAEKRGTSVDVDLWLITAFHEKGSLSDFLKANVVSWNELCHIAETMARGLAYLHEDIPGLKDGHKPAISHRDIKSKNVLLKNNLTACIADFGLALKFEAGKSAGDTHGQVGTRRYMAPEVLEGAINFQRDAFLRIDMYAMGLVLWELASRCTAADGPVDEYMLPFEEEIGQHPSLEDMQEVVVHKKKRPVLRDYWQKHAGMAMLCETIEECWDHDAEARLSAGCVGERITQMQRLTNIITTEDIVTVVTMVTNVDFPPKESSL

In the case of `C1=C(c2nc(-c3cnn(C4CCNCC4)c3)cn3cc(-c4ccccc4)nc23)CCOC1` [YL-939], the remaining activity at 10 µM in [1] amounted to 96%; in assay [2] it was 73%; in assay [3], 82%; in [4], 122%; in [5] it was 94%; in assay [6] it was 85%. In addition, the remaining activity at 10 µM in assay [7] is 115%; in assay [8], 92%; in [9], 119%; in assay [10], 85%; in assay [11], 106%; in assay [12], 99%. The remaining activity at 10 µM in assay [13] was 98%; in [14], 76%; in assay [15], 128%; in assay [16], 64%; in assay [17], 144%; in [18] it was 108%. Also, the remaining activity at 10 µM is 81% in assay [19], 82% in [20], 90% in [21] and 84% in assay [22].
